# Where two headings read alike, the source gives them in different places.
# Test system: dihydrofolate reductase (DHFR)
# Conditions: 1 uM TMP
# Procedure: Immediately before applying DOPC/DGS NTA (Ni) lipids, clean microscope slides with Piranha wash for 20 minutes. Rinse 3× with diH2O in a slide staining vessel. Dry slides with compressed Nitrogen. Assemble SHG wells by attaching adhesive gaskets to Piranha-cleaned slides (i.e., 16 wells per slide containing 10-20 μl volume). Use an assembly jig to align gaskets, carefully lay slide into jig and press firmly. Dilute DOPC/DGS NTA (Ni) lipid prep 1:1 with PBS or TBS buffers. 100 mM NaCl is required to reduce hydrostatic charge of the glass slide and enable the supported lipid bilayer (SLB) to form. Pipet 10-20 μL of diluted DOPC/DGS NTA (Ni) lipid into the wells of the slide and incubate for 5 minutes at room temperature. Wash the wells by submersing the slide in buffer bath (PBS or TBS) and agitating with a 200 μL pipettor taking care not to introduce air into the wells at any time. Exchange the entire volume of buffer in the bath with fresh buffer and repeat the washing step 2 more times. Add a 1:1 volume of 100 mM NiCl2 solution to all wells and incubate for 10 minutes at room temperature. Wash the wells by submersing the slide in buffer bath (PBS or TBS) and agitating with a 200 μL pipettor. Exchange the entire volume of buffer in bath with fresh buffer and repeat the washing step 2 more times. […]
smiles,measurement,setting,value
"COc1cc(Cc2cnc(N)nc2N)cc(OC)c1OC [TMP, trimethoprim]","decrease in baseline signal (SHG % change, Izzz)",cysteine-labeled DHFR mutant tethered to Ni/NTA supported lipid bilayer via His tag at the C-terminus,approximately 90%
same,"decrease in baseline signal (SHG % change, Izzz)","cysteine-labeled DHFR mutant tethered to Ni/NTA supported lipid bilayer via His tag at the N-terminus, FIG. 14A",roughly 70%
